The subject of one data set is alkaline phosphatase. The note with it: literature; cited from earlier work.
Data set [1] is described as follows: stability compared with forphenicine. The format is physicochemical. The note with it: relative to forphenicine.
Data set [2] can be described thus: acute toxicity (LD50), intraperitoneal injection in mice. The note with it: mouse, in vivo, ip; intraperitoneally injected into mice.
The next data set deals with immune response. Nature of the data set: immunopotentiating activity upon oral administration compared with forphenicine. The format is in vivo. The note with it: relative to forphenicine.
Data set [3] concerns cellular immunity (cell-mediated immunity). Nature of the data set: Delayed-Type Hypersensitivity (D.T.H.) footpad swelling, effect on cellular immunity in mice immunized with sheep red blood cells. To be noted: for Degree of swelling: left hind footpad, 24 hours after elicitation. In kind it is in vivo, ddY mouse. How it is done: In order to evaluate the immunopotentiating properties of the compound (I) of this invention, the effect of the compound (I) on cellular immunity (cell-mediated immunity) was tested according to a known Delayed-Type Hypersensitivity (D.T.H.) technique (see P. H. Lagrange, G. B. Mackaness and T. E. Mille, "J. Exp. Med", 139, 1529-1539 (1974)) using mice immunized with sheep red blood cells as antigen.
Thus, 10^8 sheep red blood cells (SRBC) suspended in 0.05 ml of physiological saline were subcutaneously injected at the time of immunization to the right hind footpad of each dd/.UPSILON. mouse under test (female, 6 weeks old) to establish delayed-type hypersensitivity. Simultaneously with the immunization, a varying dose of the compound (I) was intraperitoneally injected or orally administered into each test mouse. Four days later, 10^8 sheep red blood cells were subcutantaneously injected into the left hind footpad of each test mouse for elicitation of the D.T.H. response. 24 hours after the elicitating injection, the thickness of the left hind footpad was measured to evaluate the degree of the swelling in the footpad. The degree of the swelling serves to estimate the cellular immunity involved. In the Table, the swelling degree is expressed in terms of the values calculated by the equation: [formula]

Regarding `NC(C(=O)O)c1ccc(C=O)c(O)c1` (stereo not shown) [Forphenicine, forphenicine], the “inhibition of alkaline phosphatase” value with alkaline phosphatase was “strong inhibitor of alkaline phosphatase”.

With `NC(C(=O)O)c1ccc(CO)c(O)c1` (stereo not shown) [compound (I), forphenicinol], in data set [1], the stability result is given as “more stable than forphenicine”. Further, in data set [2], the LD50 is over 500 mg/kg. Further, the “activity upon oral administration” value in the data set on immune response is reported as “higher activity than forphenicine”. For the same molecule, the Degree of swelling is listed as 183 in data set [3] (i.p. injection, 0.1 μg/mouse); 159 in data set [3] (i.p. injection, 1 μg/mouse); 148 in data set [3] (i.p. injection, 10 μg/mouse); 131 in data set [3] (i.p. injection, 100 μg/mouse); 139 in data set [3] (oral administration, 0.1 μg/mouse); 133 in data set [3] (oral administration, 1 μg/mouse). Moreover, the Degree of swelling in data set [3] (oral administration, 10 μg/mouse) is given as 191; in data set [3] (oral administration, 100 μg/mouse), 166. Moreover, in data set [3] (intraperitoneal injection or oral administration, wide range of dosages), the “potentiating effect on establishment of cellular immunity” value was “intensive potentiating effect”.

By LD50 is commonly meant the dose expected to kill half of the subjects tested. A low value points to a more toxic substance.

The record behind these values is patent US4238507A, “Pharmacological compound with immunopotentiating activity and production and uses thereof” (Zaidan Hojin Biseibutsu Kagaku Kenkyu Kai, priority 1979, dated 1980).
